The values that follow come from publication PMC5370276, “Induction of Osteopontin by Dengue Virus-3 Infection in THP-1 Cells: Inhibition of the Synthesis by Brefelamide and Its Derivative” (Frontiers in Microbiology, 2017).

Series [1] relates to Osteopontin (OPN) in THP-1 cells. Description: OPN protein level in culture supernatant by ELISA, THP-1 cells. Type of series: cell-based, human. The protocol:
(§1) Osteopontin levels in the cell culture supernatant were quantified using an ELISA kit (R&D Systems, Minneapolis, MN, USA) according to the manufacturer’s instructions and as previously reported ([Chagan-Yasutan et al., 2014]). The supernatant was diluted eightfold for THP-1 cells and two–fourfold for 293T cells, and the final value was calculated as [drawing 1] and was expressed as pg/ml/10^6 cells.
(§2) Changes in OPN expression in uninfected THP-1 and 293T cell lines in response to treatment with compounds A and B were assessed. Each well in a 12-well tissue culture plate was seeded with 1.8 × 10^5 cells. After overnight incubation, the compounds were added at final concentrations of 3–100 μM. Cells were harvested 3 days later. OPN mRNA and protein levels were quantified by RT-qPCR and ELISA, respectively, to determine the optimal concentration.
(§3) THP-1 and 293T cells were seeded in a Nunc cell culture tube and a 12-well cell culture plate, respectively, at 1.8 × 10^5/well. After overnight incubation, cells were washed and incubated with fresh medium containing DENV-3 at an MOI of 0.1 or incubated without virus for 1.5 h. The inoculum was then removed and cells were washed twice with fresh medium, and compounds A and B were added at final concentrations of 3, 10, and 30 μM. […] On day 3 post-infection, culture supernatants and cell lysates were collected. Cell viability was evaluated by Trypan Blue exclusion and DENV copy number was determined by RT-qPCR. OPN mRNA and protein levels were quantified by RT-qPCR and ELISA, respectively.
Background: ELISA stands for enzyme-linked immunosorbent assay.

Series [2] relates to Osteopontin (OPN) in 293T cells. Briefly: OPN protein level in culture supernatant by ELISA, 293T cells. Type of series: cell-based, human. On the procedure:
as §1, §2
THP-1 and 293T cells were seeded in a Nunc cell culture tube and a 12-well cell culture plate, respectively, at 1.8 × 10^5/well. After overnight incubation, cells were washed and incubated with fresh medium containing DENV-3 at an MOI of 0.1 or incubated without virus for 1.5 h. […] […] On day 3 post-infection, culture supernatants and cell lysates were collected. Cell viability was evaluated by Trypan Blue exclusion and DENV copy number was determined by RT-qPCR. OPN mRNA and protein levels were quantified by RT-qPCR and ELISA, respectively.

The test system of series [3] is DENV-3. Briefly: DENV RNA copy number by RT-qPCR in infected THP-1 cells. The series is classed as cell-based, Dengue virus-3. Particulars: 72 h. The protocol:
(§4) Viral copy number in culture supernatants and cell lysates was measured by RT-qPCR as previously described ([Chagan-Yasutan et al., 2013]) using the RNA UltraSense One-Step Quantitative RT-PCR System (Invitrogen, Carlsbad, CA, USA) and Thermal Cycler Dice Real Time System (Takara Bio, Otsu, Japan) according to the manufacturers’ protocols. Primers and hydrolysis probes specific to the 3′ untranslated region of each of the four DENV genotypes have been previously published ([Chagan-Yasutan et al., 2013]). The forward and reverse primers were as follows 5′-[…]-3′ and 5′-[…]-3′ ([Warrilow et al., 2002]). The TaqMan probe was labeled at the 5′ and 3′ ends with a 6-carboxyfluorescein (FAM) reporter and Black Hole quencher (BHQ)-1 (i.e., 5′[FAM]–[…]–[BHQ1]3′). The copy numbers obtained by DENV RT-qPCR were linearly associated with plaque numbers (data not shown).
as §3

Series [4] is described as follows: Cytotoxicity, CellTiter 96 Aqueous (MTS) cell proliferation assay. Type of series: cell-based, human. As to conditions: human, THP-1 cells, 24 h incubation. The protocol:
(§5) Brefelamide, henceforth referred to as compound A ([Kikuchi et al., 2005]), is an aromatic amide isolated from methanol extracts of Dictyostelium brefeldianum and D. giganteum slime mold fruiting bodies; its derivative, henceforth referred to as compound B ([Kikuchi et al., 2005]; [Zhang et al., 2016b]), contains a methyl ether group (-OCH3). Both compounds were dissolved in dimethyl sulfoxide (DMSO) at a concentration of 50 mM and stored at -20°C. Aliquots of the stock solutions were further diluted with appropriate growth medium to the desired concentrations before use. […] THP-1 and 293T cells were seeded in 96-well tissue culture plates at a density of 1.8 × 10^4/well in 90 μl of the appropriate growth medium and incubated for 24 h at 37°C in a humidified 5% CO2 atmosphere. The following day, 10 μl of compounds A and B at concentrations ranging from 0.0001 to 10 mM were added to each well. […] The absorbance at 490 nm was recorded with an ELISA plate reader and the IC50 value was determined by identifying the X-axis value corresponding to one-half of the difference between the maximum and minimum absorbance values using GraphPad Prism v.6 software (GraphPad Inc., San Diego, CA, USA).

Series [5] concerns DENV-3. Description: DENV RNA copy number by RT-qPCR in infected 293T cells. Particulars: 0.3 μM. The series is classed as cell-based, Dengue virus-3. The protocol: as §4
THP-1 and 293T cells were seeded in a Nunc cell culture tube and a 12-well cell culture plate, respectively, at 1.8 × 10^5/well. After overnight incubation, cells were washed and incubated with fresh medium containing DENV-3 at an MOI of 0.1 or incubated without virus for 1.5 h. […] Cell viability was evaluated by Trypan Blue exclusion and DENV copy number was determined by RT-qPCR. OPN mRNA and protein levels were quantified by RT-qPCR and ELISA, respectively.

For series [6], the system named is OPN mRNA in THP-1 cells. Briefly: OPN mRNA expression by RT-qPCR in uninfected and DENV-3-infected THP-1 cells. Type of series: cell-based, human. As to conditions: 72 h.
Excerpt: Glyceraldehyde 3-phosphate dehydrogenase (GAPDH) was used as reference gene for normalization of expression levels and was amplified with the following forward and reverse primers: GAPDH-F, 5′-[…]-3′ and GAPDH-R, 5′-[…]-3′. The Taqman probe was as follows: 5′[FAM]–[…]–[BHQ1]3′. A forward and reverse primer set (SPP1-F, 5′-[…]-3′ and SPP1-R, 5′-[…]-3′) and a probe (SPP1-P, 5′-[FAM]–[…] GAAGT–[BHQ1]3′) (Takara Bio) were used to quantify OPN mRNA ([Qin et al., 2015]). The mean fold change in OPN mRNA level was calculated as fold difference = 2^-ΔΔCt.
as §2
THP-1 and 293T cells were seeded in a Nunc cell culture tube and a 12-well cell culture plate, respectively, at 1.8 × 10^5/well. […] Cell viability was evaluated by Trypan Blue exclusion and DENV copy number was determined by RT-qPCR. OPN mRNA and protein levels were quantified by RT-qPCR and ELISA, respectively.
In general terms: Real-time PCR tracks product formation cycle by cycle.

The subject of series [7] is 293T cells. Briefly: Cytotoxicity, CellTiter 96 Aqueous (MTS) cell proliferation assay. Type of series: cell-based, human. Particulars: 24 h incubation.
Protocol: Both compounds were dissolved in dimethyl sulfoxide (DMSO) at a concentration of 50 mM and stored at -20°C. Aliquots of the stock solutions were further diluted with appropriate growth medium to the desired concentrations before use. […] The following day, 10 μl of compounds A and B at concentrations ranging from 0.0001 to 10 mM were added to each well. After incubation for 24 h, 20 μl per well of 3-(4,5-dimethyl-2-yl)-5-(3-carboxymethoxyphenyl)-2-(4-sulfophenyl)-2H-tetrazolium salt/phenazine methosulfate solution was added to each well, followed by incubation for 4 h. The absorbance at 490 nm was recorded with an ELISA plate reader and the IC50 value was determined by identifying the X-axis value corresponding to one-half of the difference between the maximum and minimum absorbance values using GraphPad Prism v.6 software (GraphPad Inc., San Diego, CA, USA).
The subject of series [8] is DENV-infected THP-1 cells. Briefly: Toxicity to DENV-infected THP-1 cells. Particulars: dose-dependent. The series is classed as cell-based, human. On the procedure:
as §3

Series [9] deals with astrocytoma cells. Also noted: method as in Kikuchi et al., 2005; Honma et al., 2009. As to conditions: by inhibiting ERK phosphorylation; ref Kikuchi et al., 2005; Honma et al., 2009; cited from earlier work.
The test system of series [10] is DENV-infected 293T cells. Briefly: Toxicity to DENV-infected 293T cells. Type of series: cell-based, human. As to conditions: dose-dependent. The protocol: as §3
The test system of series [11] is OPN mRNA in 293T cells. Description: OPN mRNA expression by RT-qPCR in uninfected and DENV-3-infected 293T cells. Particulars: uninfected 293T cells, 3-30 μM, 72 h. The series is classed as cell-based, human.
For series [12], the system named is THP-1 cells. Description: Cytotoxicity, CellTiter 96 Aqueous (MTS) cell proliferation assay. The series is classed as cell-based, human. As to conditions: 24 h incubation. The protocol: as §5
[13] abbreviates: DENV-infected THP-1 cells, MOI 0.1, 3 days.

As usually defined, the IC50 is the midpoint of a concentration-inhibition curve. Low values mean greater potency in that assay, high ones weaker potency in that assay.

For the molecule `CCC(C)(C)C(=O)O[C@H]1C[C@@H](C)C=C2C=C[C@H](C)[C@H](CC[C@@H]3C[C@@H](O)CC(=O)O3)[C@H]21` [simvastatin, reference compound], in series [1] (setting [13]), the “OPN levels in supernatant” value was “had no effect”. Also, the OPN production entry in series [2] (DENV-infected 293T cells, 0.3 μM) is “suppressed OPN production”. For the same molecule, the “Virus replication (DENV RNA copy number)” value in [3] (THP-1 culture supernatant, 0.3-1 μM) was “had no effect”. Further, in series [4], the midpoint of inhibition, the IC50 at 24 h, lay at 14.1 µM. Moreover, the “Viral replication (DENV RNA)” value in [5] (293T cell lysates) and in series [5] (293T culture supernatant) was “inhibited viral replication” each time.
Take `Nc1c(Oc2ccc(O)cc2)cccc1C(=O)CCNC(=O)c1ccc(O)cc1` [compound A, Brefelamide]: the “OPN mRNA expression” value is reported as “inhibited OPN mRNA expression in a dose-dependent manner” in [6] (DENV-infected THP-1 cells, MOI 0.1, 3-30 μM) and “had no effect” in series [6] (uninfected THP-1 cells, 3-30 μM). The IC50 in series [7] came out at 32.2 µM; in [12], 102 µM. For the same molecule, the Toxic concentration in [8] and in series [10] was > 30 µM throughout. Besides, in series [9], the “Proliferation of astrocytoma cells” value is given as “suppressed the proliferation”. The “OPN level in supernatant after treatment” value in series [1] (DENV-infected THP-1 cells, 10 μM compound, 3 days, infected control 67848.9) is recorded as 12247.9 pg/ml/10^6 cells. Moreover, the “OPN levels in supernatant” value in series [1] (setting [13]) was “dose-dependent reduction”; in [1] (uninfected THP-1 cells, 3 days), “had no effect”. Moreover, the “OPN expression (protein, supernatant)” value in series [2] (DENV-infected 293T cells, MOI 0.1, 3 days) is on record as “did not inhibit”; in series [2] (uninfected 293T cells, 3 days) it was “did not inhibit”. Moreover, in series [11], the “OPN mRNA levels” value is reported as “reduced OPN mRNA levels”. For the same molecule, the “Suppression of DENV RNA levels relative to the control” value in [3] (THP-1 cell culture supernatant, 10 μM) worked out at 75%. For the same molecule, the “Suppression of DENV RNA levels” value in series [3] (THP-1 cell lysates, 10 μM) is “not lysates”.
